Earlier results on one compound are cited in US20070219250A1, “Pharmaceutical Compositions of Nateglinide” (priority 2003, published 2007).

Regarding `CC(C)[C@H]1CC[C@H](C(=O)N[C@H](Cc2ccccc2)C(=O)O)CC1` [Nateglinide], the Solubility in water entry is reported as “insoluble”.
